Reference: patent US12485122B2, “Combination of palbociclib and adagrasib for lung cancer” (Mirati Therapeutics, Inc., priority 2018, dated 2025)

Key:
Assay type in all cases: in vivo, nude/nude mice
SW1573 cells = experiment: SW1573 tumor bearing mice, single agents and combination; conditions: for tumor growth inhibition: Day 28, single agent, Compound 478 100 mg/kg or palbociclib 130 mg/kg p.o. daily; for Average Tumor Volume: Compound 478 100 mg/kg, palbociclib 130 mg/kg, 7 mice averaged
Protocol: (§1) Immunocompromised nude/nude mice were inoculated in the right hind flank with cells or patient derived tumor samples harboring a KRas G12C mutation. When tumor volumes reached between 200-400 mm^3 in size, the mice were divided into four groups of 5-12 mice each. The first group was administered vehicle only. […] The fourth group was administered the single agent dose of the KRas G12C inhibitor in combination with the single agent dose of the CDK 4/6 inhibitor. […] Tumor volumes were measured using a caliper every two-three days and tumor volumes are calculated by the formula: […].
For example, 28 nude/nude mice were inoculated in the right hind limb with 5×10^6 SW1573 cells.

LU6405 cells = experiment: LU6405 tumor bearing mice, single agents and combination; conditions: for Average Tumor Volume: Compound 478 100 mg/kg, palbociclib 130 mg/kg, 5 mice averaged
Protocol: as §1
In another experiment, on Day 0, 20 nude/nude mice were inoculated in the right hind limb with 5×10^6 LU6405 cells.

H2122 cells = experiment: H2122 tumor bearing mice, single agents and combination; conditions: for tumor growth inhibition: Day 23, single agent, Compound 478 100 mg/kg or palbociclib 130 mg/kg p.o. daily; for Average Tumor Volume: Compound 478 100 mg/kg, palbociclib 130 mg/kg, 5 mice averaged
Protocol: as §1
Similarly, 20 nude/nude mice were inoculated in the right hind limb with 5×10^6 H2122 cells.

[1] = Study Day 22, p.o. daily for 21 days
[2] = Study Day 24, p.o. daily for 21 days
[3] = Study Day 23, p.o. daily for 21 days

Structure (SMILES)	tumor growth inhibition (SW1573 cells) [%]	Average Tumor Volume (SW1573 cells; Study Day 0, p.o. daily) [mm^3]	Average Tumor Volume (SW1573 cells; Study Day 6, p.o. daily) [mm^3]	Average Tumor Volume (SW1573 cells; Study Day 9, p.o. daily) [mm^3]	Average Tumor Volume (SW1573 cells; Study Day 14, p.o. daily) [mm^3]	Average Tumor Volume (SW1573 cells; Study Day 16, p.o. daily) [mm^3]	Average Tumor Volume (SW1573 cells; Study Day 18, p.o. daily) [mm^3]	Average Tumor Volume (SW1573 cells; Study Day 21, p.o. daily) [mm^3]	Average Tumor Volume (SW1573 cells; Study Day 23, p.o. daily) [mm^3]	Average Tumor Volume (SW1573 cells; Study Day 25, p.o. daily) [mm^3]	Average Tumor Volume (SW1573 cells; Study Day 28, p.o. daily) [mm^3]	Average Tumor Volume (LU6405 cells; Study Day 1, p.o. daily) [mm^3]	Average Tumor Volume (LU6405 cells; Study Day 4, p.o. daily) [mm^3]	Average Tumor Volume (LU6405 cells; Study Day 8, p.o. daily) [mm^3]	Average Tumor Volume (LU6405 cells; Study Day 11, p.o. daily) [mm^3]	Average Tumor Volume (LU6405 cells; Study Day 15, p.o. daily) [mm^3]	Average Tumor Volume (LU6405 cells; Study Day 18, p.o. daily) [mm^3]	Average Tumor Volume (LU6405 cells; [1]) [mm^3]	Average Tumor Volume (LU6405 cells; [2]) [mm^3]	tumor growth inhibition (H2122 cells) [%]	other results
C=C(F)C(=O)N1CCN(c2nc(OC[C@@H]3CCCN3C)nc3c2CCN(c2cccc4cccc(Cl)c24)C3)C[C@@H]1CC#N [Compound 478]	71	357	404	435	523	575	607	754	758	741	785	256.06	308.98	324.46	329.09	310.21	290.88	257.34	249.19	85	tumor growth inhibition (LU6405 cells; Day 24, single agent, Compound 478 100 mg/kg p.o. daily): 96%; Average Tumor Volume (H2122 cells; Study Day 0, p.o. daily): 325 mm^3; Average Tumor Volume (H2122 cells; Study Day 2, p.o. daily): 340 mm^3; Average Tumor Volume (H2122 cells; Study Day 4, p.o. daily): 338 mm^3; Average Tumor Volume (H2122 cells; Study Day 7, p.o. daily): 381 mm^3; Average Tumor Volume (H2122 cells; Study Day 9, p.o. daily): 462 mm^3; Average Tumor Volume (H2122 cells; Study Day 11, p.o. daily): 480 mm^3; Average Tumor Volume (H2122 cells; Study Day 14, p.o. daily): 493 mm^3; Average Tumor Volume (H2122 cells; Study Day 16, p.o. daily): 541 mm^3; Average Tumor Volume (H2122 cells; Study Day 18, p.o. daily): 537 mm^3; Average Tumor Volume (H2122 cells; Study Day 21, p.o. daily): 547 mm^3; Average Tumor Volume (H2122 cells; [3]): 547 mm^3
CC(=O)c1c(C)c2cnc(Nc3ccc(N4CCNCC4)cn3)nc2n(C2CCCC2)c1=O [Palbociclib, 6-acetyl-8-cyclopentyl-5-methyl-2-((5-(piperazin-1-yl)pyridin-2-yl)amino)pyrido[2,3-d]pyrimidin-7(8H)-one]	40	356	484	508	748	807	706	926	1029	1167	1240	255.36	440.79	659.01	834.95	1165.80	1295.57	1363.40	1382.59	65	Average Tumor Volume (SW1573 cells; Study Day 3, p.o. daily): 444 mm^3; Average Tumor Volume (SW1573 cells; Study Day 11, p.o. daily): 515 mm^3; Average Tumor Volume (H2122 cells; Study Day 0, p.o. daily): 326 mm^3; Average Tumor Volume (H2122 cells; Study Day 2, p.o. daily): 385 mm^3; Average Tumor Volume (H2122 cells; Study Day 4, p.o. daily): 493 mm^3; Average Tumor Volume (H2122 cells; Study Day 7, p.o. daily): 601 mm^3; Average Tumor Volume (H2122 cells; Study Day 9, p.o. daily): 646 mm^3; Average Tumor Volume (H2122 cells; Study Day 11, p.o. daily): 663 mm^3; Average Tumor Volume (H2122 cells; Study Day 14, p.o. daily): 748 mm^3; Average Tumor Volume (H2122 cells; Study Day 16, p.o. daily): 765 mm^3; Average Tumor Volume (H2122 cells; Study Day 18, p.o. daily): 790 mm^3; Average Tumor Volume (H2122 cells; Study Day 21, p.o. daily): 836 mm^3; Average Tumor Volume (H2122 cells; [3]): 834 mm^3
